In patent US6087363A, “Use of imidazole and indole compounds as inhibitors of nitric oxide synthase” (Harbor Branch Oceanographic Institution, Inc., priority 1999, dated 2000):

Assays:
rat cerebral bNOS = experiment: inhibition of bNOS activity (nitrite production, Griess reaction); format: biochemical; conditions: for bNOS Inhibition, % Inhib: 15 min, average of 4 wells; for IC50: approximately, FIG. 1; for specificity/selectivity of bNOS inhibition: at the concentrations tested, conclusion in words
Experimental: Rat cerebral bNOS in working buffer was incubated with L-arginine and the nitrites produced after 15 minutes were measured using the Griess reaction. Results are presented as the % inhibition of bNOS activity as compared to a negative control (0% inhibition) and positive control (100% inhibition). Each point represents the average inhibition ± standard deviation of 4 wells.
Marine-derived imidazole and indole containing compounds were tested for their ability to inhibit rat cerebral NOS at a concentration range of 1.0 to 50 μM.
Evaluation of activity of bNOS was performed by measuring nitrite production using the Griess reaction (Greenberg, S. S., J. Xie, J. J. Spitzer, J. F. Wang, J. Lancaster, M. B. Grisham, D. R. Powers, T. D. Giles [1995] Life Sci. 57:1949-1961) following an incubation of purified bNOS with L-arginine according to the methods of Ohshima et al. (Ohshima, H., S. Oguchi, H. Adachi, S. Iida, H. Suzuki, T. Sugimura, H. Esumi [1992] Biochem. Biophys. Res. Comm. 183:238-244). All reactions were carried out in 96 well microtiter plates. Briefly, imidazole and indole compounds were tested in reaction buffer (80 mM HEPES, pH 7.3; 1.0 mM EDTA; 1.5 mM CaCl2) containing calmodulin (330 units/ml; Sigma Chemical Co.), dithiothreitol (1.3 mM), tetrahydrobiopterin (66 μM; Sigma), flavin adenine dinucleotide (16 μM; Sigma), and bovine brain nitric oxide synthase (1.67 units/ml; Sigma). The solutions were mixed and equilibrated at 37° C. for 2 minutes prior to the addition of L-arginine (113 μM; Sigma) and NADPH (200 μM; Sigma). Final reaction volume was 150 μl per well. The enzymatic reaction occurred at 37° C. for 15 minutes and nitrite formation detected by the addition of 100 μl of Greiss's reagent (1% sulfanilamide, 0.15% n-1-(naphthyl)-ethylenediamine dihydrochloride, 2.5% phosphoric acid; Sigma) and the color intensity determined by spectrophotometric absorbance at 540 nm (Spectra II; Tecan US Inc., Durham, N.C.).

calcineurin = calcineurin (Homo sapiens, UniProt Q08209); experiment: inhibition of calcineurin activity (PNPP dephosphorylation); format: biochemical; conditions: for inhibition of calcineurin activity: at concentrations below 50 μM; for IC50: PNPP substrate, 30° C., 1 hour; for potency on calcineurin compared with bNOS: comparison of IC50 for calcineurin and bNOS
Experimental: Inhibition of calcineurin, a calmodulin-dependent enzyme (Klee, C. B., H. Ren, X. Wang [1998] J. Biol. Chem. 273:13367-13370), by marine-derived imidazoles and indoles was tested as an indirect means of assessing the effect of these compounds on calmodulin. […] Neither hamacanthin-A nor dragmacidin were able to inhibit calcineurin activity by more than 33% at concentrations below 50 μM.
Calcineurin activity was measured by the colorimetric method based on the dephosphorylation of p-nitrophenyl phosphate (PNPP) (Greenberg, S. S., J. Xie, J. J. Spitzer, J. F. Wang, J. Lancaster, M. B. Grisham, D. R. Powers, T. D. Giles [1995] Life Sci. 57:1949-1961) in a buffer of 0.5 mM MnCl2, 1 mM dithiothreitol, 50 mM tris base (pH 7.5), 0.05 mM CaCl2, and 10 μg/ml calmodulin (Sigma). Briefly, marine-derived compounds in ethanol were transferred to 96-well plates, air dried and resuspended in the working buffer. Calcineurin was added to a final concentration of 2.75 μg protein/ml and the enzyme allowed to equilibrate at 30° C. for 10 minutes prior to the addition of substrate. PNPP was added (final concentration≈50 mM) and the reaction mixture incubated at 30° C. for 1 hour. The optical density was measured at 405 nm in a Spectra II spectrophotometer.

[1] = biological target: T1, iNOS (murine macrophage RAW 264.7 cells) (Mus musculus, UniProt P29477); experiment: inhibition of whole cell iNOS activity in LPS/IFN-γ stimulated RAW 264.7 cells (nitrites, Griess reaction); format: cell-based; conditions: RAW264.7, 24 hours, average of 4 wells, read-out: iNOS Inhibition, % Inhibit
T1 construct: host or cells: RAW 264.7
Experimental: Resultant nitrites in the TCM were measured by the Griess reaction and compared to stimulated cells incubated in the absence of test compound (0% inhibition) and unstimulated cells (100% inhibition). Each point represents the average inhibition of 4 wells±standard deviation.
Inhibition of whole cell iNOS activity by hamacanthin-A, dragmacidin and dragmacidin-D was tested to determine the specificity of the NOS inhibitory actions of these compounds.
RAW 264.7 cells were obtained from the American Type Culture Collection (Rockville, Md.) and maintained in tissue culture medium (TCM) (RPMI 1640 medium containing 100 U/ml penicillin, 100 μg/ml streptomycin, 60 μg/ml L-glutamine, 18 mM HEPES, 0.05 mg/ml gentamicin; Life Technologies, Gaithersburg, Md.) and supplemented with 10% rehatuin fetal bovine serum (Intergen Co., Purchase, N.Y.). Cells were subcultured at 3-4 day intervals, and used within 20 passages from the initial stock culture.
Test compounds were diluted in ethanol, aliquoted into appropriate wells of a 96 well microtiter plate and allowed to air dry for 1 hour at room temperature. RAW 264.7 cells were then subcultured into each well at a density of 5×10^4 cells/well in 200 μl of TCM containing lipopolysaccharide (1 ng/ml; Sigma) and interferon-γ (2 units/ml; PharMingen, San Diego, Calif.). Plates were incubated at 37° C., 5% CO2 for 24 hours. 150 μl of the TCM from each well was transferred to a second microtiter plate, 100 μl Griess reagent added to this TCM and the color intensity determined as above. Viability of the cells was determined by the methods of Mossman (Mossman, T. [1983] J. Immunol. Methods 65:55-63). Briefly, 150 μl of TCM containing 3-[4,5-dimethylthiazol-2-yl]-2,5-diphenyltetrazolium bromide (MTT, 2.5 mg/ml; Sigma) was added to each well containing the RAW 264.7 cells and incubated at 37° C., 5% CO2 for 3 hours. The medium was removed from all wells and replaced with 200 μl of acidified isopropyl alcohol (0.2% HCl). The plates were shaken for 15 minutes and the presence of the blue formazan was detected using a Spectra II spectrophotometer set at 570 nm and with a 650 nm reference filter.

Compound | IC50 (rat cerebral bNOS) [µM] | inhibition of calcineurin activity (calcineurin) [%] | inhibition at 2.5 µM [1] [%] | inhibition at 5 µM [1] [%] | inhibition at 10 µM [1] [%] | inhibition at 25 µM [1] [%] | inhibition at 50 µM [1] [%] | IC50 (calcineurin) [µM] | bNOS Inhibition, % Inhib (rat cerebral bNOS; 1 μM) [%] | bNOS Inhibition, % Inhib (rat cerebral bNOS; 5 μM) [%] | bNOS Inhibition, % Inhib (rat cerebral bNOS; 10 μM) [%] | bNOS Inhibition, % Inhib (rat cerebral bNOS; 50 μM) [%] | specificity/selectivity of bNOS inhibition (rat cerebral bNOS) | potency on calcineurin compared with bNOS (calcineurin) | inhibitory effects on the production of NO (bNOS) (rat cerebral bNOS; 1.0 to 50 μM)
CN1C[C@H](c2c[nH]c3c(Br)c(Br)cc(O)c23)NC[C@H]1c1c[nH]c2cc(Br)ccc12 (relative stereo) [Dragmacidin, dragmacidin] | ~20 | ≤ 33 | -3.94 | -8.44 | -6.23 | 3.16 | 15.8 |  | 38.94 | 3.54 | 32.74 | 90.27 | able to specifically block the activity of bNOS |  | 
Brc1ccc2c(-c3c[nH]c(-c4c[nH]c5ccccc45)n3)c[nH]c2c1 [Nortopsentin-C, nortopsentin-C] | ~27 |  |  |  |  |  |  | 11.4 | 20.16 | 9.88 | 16.05 | 98.77 | not able to selectively inhibit rat cerebral bNOS | a concentration lower than its IC50 for bNOS | 
O=C(c1nc(-c2c[nH]c3ccccc23)c[nH]1)c1c[nH]c2cc(O)ccc12 [Topsentin, topsentin] |  |  |  |  |  |  |  |  | 5.08 | 5.47 | -0.39 | 22.66 | not able to selectively inhibit rat cerebral bNOS |  | minimal inhibitory effects

Continued by falling IC50 (rat cerebral bNOS), values first:

IC50 (rat cerebral bNOS) [µM] | inhibition of calcineurin activity (calcineurin) [%] | inhibition at 2.5 µM [1] [%] | inhibition at 5 µM [1] [%] | inhibition at 10 µM [1] [%] | inhibition at 25 µM [1] [%] | inhibition at 50 µM [1] [%] | IC50 (calcineurin) [µM] | Compound | bNOS Inhibition, % Inhib (rat cerebral bNOS; 1 μM) [%] | bNOS Inhibition, % Inhib (rat cerebral bNOS; 5 μM) [%] | bNOS Inhibition, % Inhib (rat cerebral bNOS; 10 μM) [%] | bNOS Inhibition, % Inhib (rat cerebral bNOS; 50 μM) [%] | specificity/selectivity of bNOS inhibition (rat cerebral bNOS) | potency on calcineurin compared with bNOS (calcineurin) | inhibitory effects on the production of NO (bNOS) (rat cerebral bNOS; 1.0 to 50 μM)
~7.5 | ≤ 33 | 2.6 | -0.61 | 0.69 | 0.65 | 5.54 |  | O=C1NC(c2c[nH]c3cc(Br)ccc23)CN=C1c1c[nH]c2cc(Br)ccc12 (stereo not drawn) [Hamacanthin-A, hamacanthin-A] | 35.42 | 43.33 | 75.42 | 99.58 | able to specifically block the activity of bNOS |  | 
~4 |  | -3.55 | -3.42 | -0.61 | 2.34 | 26.9 | 10 | CC(c1cnc(N)[nH]1)c1ccc(O)c2[nH]cc(-c3cnc(-c4c[nH]c5cc(Br)ccc45)c(=O)[nH]3)c12 (stereo not drawn) [Dragmacidin-D, dragmacidin-D] | 16.89 | 74.22 | 96.44 | 99.56 | able to specifically block the activity of bNOS | a more potent inhibitor of bNOS | 
